Data on twelve compounds can be found in PubChem BioAssay (NCI).

Some test systems named below: T-47D breast; MOLT-4 leukemia; HCT-116 colon; SF-295 CNS; NCI-H226 lung; M14 melanoma; LOX IMVI melanoma; NCI-H522 lung; SK-OV-3 ovarian; SF-268 CNS; DU-145 prostate; OVCAR-8 ovarian; CCRF-CEM leukemia; BT-549 breast; MDA-MB-231 breast; RPMI-8226 leukemia; SNB-75 CNS; MDA-MB-435.
What all share (assay): NCI anticancer screen, dose series, 48 h

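Growth conditions: 96-well plates. Treatment: test compound, 48 hours, 5 concentrations. Analysis: linear interpolation between bracketing concentrations; unreached endpoints set to highest concentration. The concentration for full growth arrest is given as TGI.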

For `COc1cc(/C=C/C(=O)N[C@@H]2C(=O)N3[C@@H]2SC(C)(C)[C@@H]3C(=O)O)cc(OC)c1OC`, the TGI in the assay on T-47D breast, with MOLT-4 leukemia, with HCT-116 colon, in the assay on SF-295 CNS, in the assay with NCI-H226 lung and in the assay with M14 melanoma was greater than 100 µM each time. The TGI in the assay on LOX IMVI melanoma, in the assay with NCI-H522 lung, in the assay with SK-OV-3 ovarian, with SF-268 CNS, in the assay with DU-145 prostate and with OVCAR-8 ovarian was greater than 100 µM in each case. Besides, the TGI in the assay on CCRF-CEM leukemia, in the assay with BT-549 breast, with MDA-MB-231 breast, with RPMI-8226 leukemia, with SNB-75 CNS and in the assay on MDA-MB-435 was greater than 100 µM throughout.
On to `COc1cccc2c1C(=O)c1c(O)c3c(c(O)c1C2=O)C[C@@](O)(/C(C)=N/NC(=O)c1ccccc1)C[C@@H]3OC1CC(N)C(O)C(C)O1` (stereo partly specified), for which the TGI in the assay with T-47D breast was found to be 3.44 µM; in the assay on MOLT-4 leukemia, 0.681 µM; with HCT-116 colon, 10.2 µM; in the assay on SF-295 CNS, 1.84 µM; in the assay on NCI-H226 lung, 0.786 µM; in the assay with M14 melanoma, 1.48 µM. Further, the TGI is 0.709 µM with LOX IMVI melanoma; 1.1 µM with NCI-H522 lung; 4.56 µM in the assay with SK-OV-3 ovarian; 3.35 µM in the assay with SF-268 CNS; 0.903 µM in the assay on DU-145 prostate; 5.96 µM with OVCAR-8 ovarian. For the same compound, the TGI came out at 3.19 µM in the assay with CCRF-CEM leukemia; 1.45 µM in the assay on BT-549 breast; 3.14 µM in the assay on MDA-MB-231 breast; 3.85 µM in the assay on RPMI-8226 leukemia; 1.97 µM with SNB-75 CNS; 2.15 µM in the assay on MDA-MB-435.
For `COC(=O)c1ccc(CCc2cc(O)c(Br)cc2O)cc1`, the TGI in the assay on T-47D breast stood at 51.1 µM; in the assay with MOLT-4 leukemia, 6.65 µM; in the assay with HCT-116 colon, 14.3 µM; in the assay on SF-295 CNS, 28 µM; in the assay with NCI-H226 lung, 55.1 µM; with M14 melanoma, 29 µM. In addition, the TGI was 27.2 µM in the assay on LOX IMVI melanoma; 12.3 µM with NCI-H522 lung; greater than 62.5 µM in the assay on SK-OV-3 ovarian; 34.1 µM in the assay with SF-268 CNS; 27.5 µM with DU-145 prostate; 30.9 µM with OVCAR-8 ovarian. Besides, the TGI is 5.78 µM in the assay with CCRF-CEM leukemia; 15.8 µM with BT-549 breast; 29 µM in the assay with MDA-MB-231 breast; 92.2 µM with RPMI-8226 leukemia; greater than 59.6 µM with SNB-75 CNS; 22.6 µM with MDA-MB-435.
Take `COC(OC)(c1ccccc1)C(I)I`: the TGI with T-47D breast was 63.1 µM; in the assay on MOLT-4 leukemia, greater than 49.8 µM; in the assay on HCT-116 colon, 18.1 µM; with SF-295 CNS, greater than 52.7 µM; in the assay on NCI-H226 lung, 42.4 µM; with M14 melanoma, 15.2 µM. Besides, the TGI in the assay on LOX IMVI melanoma is 32.4 µM; in the assay with NCI-H522 lung it was 6.98 µM; in the assay with SK-OV-3 ovarian, 16.7 µM; in the assay with SF-268 CNS it was 46.1 µM; in the assay on DU-145 prostate, greater than 67.7 µM; in the assay on OVCAR-8 ovarian, 35.1 µM. The TGI is 22.7 µM with CCRF-CEM leukemia; 23.1 µM in the assay on BT-549 breast; 36.4 µM with MDA-MB-231 breast; greater than 100 µM in the assay on RPMI-8226 leukemia; 26.3 µM with SNB-75 CNS; 18 µM in the assay on MDA-MB-435.
Consider `COC1(OC)C2(Cl)C(Cl)=C(Cl)C1(Cl)C1COCC12` (stereo unspecified), for which the TGI in the assay with T-47D breast, in the assay on MOLT-4 leukemia, in the assay on HCT-116 colon, with SF-295 CNS, in the assay with NCI-H226 lung and in the assay with M14 melanoma was greater than 100 µM in each case. Moreover, the TGI with LOX IMVI melanoma, in the assay on NCI-H522 lung, with SK-OV-3 ovarian, with SF-268 CNS, in the assay on DU-145 prostate and in the assay on OVCAR-8 ovarian was greater than 100 µM each time. For the same compound, the TGI with CCRF-CEM leukemia is greater than 100 µM; in the assay with BT-549 breast, greater than 100 µM; with MDA-MB-231 breast it was greater than 100 µM; in the assay with RPMI-8226 leukemia, greater than 100 µM; in the assay on SNB-75 CNS, greater than 100 µM; in the assay on MDA-MB-435, greater than 69.4 µM.
In the case of `CC1=C(C(=O)NCC(C)O)CC(C(=O)NCC(C)O)=C(C)N1` (stereo unspecified), the TGI in the assay on T-47D breast, in the assay with MOLT-4 leukemia, in the assay on HCT-116 colon, in the assay on SF-295 CNS, in the assay on NCI-H226 lung and in the assay on M14 melanoma was greater than 100 µM each time. The TGI in the assay on LOX IMVI melanoma, in the assay on NCI-H522 lung, with SK-OV-3 ovarian, with SF-268 CNS, with DU-145 prostate and with OVCAR-8 ovarian was greater than 100 µM each time. The TGI in the assay on CCRF-CEM leukemia, in the assay with BT-549 breast, in the assay with MDA-MB-231 breast, in the assay with RPMI-8226 leukemia, with SNB-75 CNS and in the assay on MDA-MB-435 was greater than 100 µM throughout.
Take `COc1cc(C2SCC(=O)N2c2ccc(Cl)cc2)cc(I)c1O` (stereo unspecified): the TGI in the assay on T-47D breast, in the assay on MOLT-4 leukemia, with HCT-116 colon, in the assay on SF-295 CNS, with NCI-H226 lung and in the assay on M14 melanoma was greater than 100 µM in each case. For the same compound, the TGI in the assay on LOX IMVI melanoma, with NCI-H522 lung, with SK-OV-3 ovarian, in the assay with SF-268 CNS, in the assay on DU-145 prostate and in the assay on OVCAR-8 ovarian was greater than 100 µM in each case. Further, the TGI in the assay with CCRF-CEM leukemia, in the assay on BT-549 breast, with MDA-MB-231 breast, in the assay with RPMI-8226 leukemia, with SNB-75 CNS and in the assay with MDA-MB-435 was greater than 100 µM each time.
For the compound `CC(C)CC1[C@@H](OCc2ccccc2)COS(=O)(=O)N1Cc1ccccc1` (stereo partly specified), the TGI in the assay with T-47D breast, with MOLT-4 leukemia, in the assay with HCT-116 colon, with SF-295 CNS, in the assay with NCI-H226 lung and in the assay with M14 melanoma was greater than 100 µM throughout. Further, the TGI in the assay with LOX IMVI melanoma, in the assay with NCI-H522 lung, in the assay on SK-OV-3 ovarian, in the assay on SF-268 CNS, in the assay on DU-145 prostate and in the assay with OVCAR-8 ovarian was greater than 100 µM each time. Also, the TGI in the assay on CCRF-CEM leukemia, in the assay on BT-549 breast, with MDA-MB-231 breast, in the assay on RPMI-8226 leukemia, with SNB-75 CNS and in the assay on MDA-MB-435 was greater than 100 µM throughout.
As to `Cc1ccc2cccc3c2c1CC1(C3=O)S(=O)(=O)OCCOS1(=O)=O`, the TGI in the assay with T-47D breast, in the assay on MOLT-4 leukemia, in the assay with HCT-116 colon, in the assay with SF-295 CNS, in the assay with NCI-H226 lung and in the assay on M14 melanoma was greater than 100 µM in each case. Besides, the TGI in the assay on LOX IMVI melanoma, with NCI-H522 lung, with SK-OV-3 ovarian, with SF-268 CNS, in the assay on DU-145 prostate and in the assay on OVCAR-8 ovarian was greater than 100 µM in each case. The TGI in the assay with CCRF-CEM leukemia, in the assay with BT-549 breast, in the assay on MDA-MB-231 breast, with RPMI-8226 leukemia, in the assay with SNB-75 CNS and with MDA-MB-435 was greater than 100 µM in each case.
On to `CCOC(=O)COc1c(OC)cc(C2C3=C(COC3=O)Oc3cc4c(cc32)OCO4)cc1OC` (stereo unspecified), for which the TGI in the assay with T-47D breast is 17.7 µM; in the assay with MOLT-4 leukemia it was 41.8 µM; in the assay with HCT-116 colon it was greater than 100 µM; with SF-295 CNS it was greater than 26.3 µM; with NCI-H226 lung, greater than 100 µM; with M14 melanoma it was greater than 100 µM. In addition, the TGI in the assay on LOX IMVI melanoma is greater than 100 µM; in the assay with NCI-H522 lung it was 3.14 µM; with SK-OV-3 ovarian it was greater than 57.5 µM; with SF-268 CNS it was greater than 100 µM; in the assay with DU-145 prostate, greater than 29.1 µM; with OVCAR-8 ovarian, 47 µM. For the same compound, the TGI in the assay on CCRF-CEM leukemia was 0.965 µM; with BT-549 breast it was 98.1 µM; with MDA-MB-231 breast, greater than 100 µM; in the assay on RPMI-8226 leukemia, 0.954 µM; in the assay on SNB-75 CNS it was greater than 100 µM; with MDA-MB-435 it was 0.89 µM.
Regarding `COc1ccc(C(C#N)NCCCCCCNC(C#N)c2ccc(OC)cc2)cc1` (stereo unspecified), the TGI in the assay on T-47D breast, in the assay with MOLT-4 leukemia, with HCT-116 colon, in the assay on SF-295 CNS, in the assay with NCI-H226 lung and with M14 melanoma was greater than 100 µM in each case. For the same compound, the TGI with LOX IMVI melanoma, with NCI-H522 lung, in the assay on SK-OV-3 ovarian, in the assay with SF-268 CNS, in the assay with DU-145 prostate and with OVCAR-8 ovarian was greater than 100 µM each time. In addition, the TGI in the assay on CCRF-CEM leukemia, with BT-549 breast, in the assay on MDA-MB-231 breast, with RPMI-8226 leukemia, with SNB-75 CNS and in the assay with MDA-MB-435 was greater than 100 µM in each case.
For the compound `O=C(N/N=C\c1ccc([N+](=O)[O-])cc1)Nc1cccc2ccccc12`, the TGI was greater than 47.6 µM in the assay on T-47D breast; greater than 100 µM in the assay on MOLT-4 leukemia; greater than 52.2 µM in the assay on HCT-116 colon; 22.6 µM in the assay with SF-295 CNS; 61 µM in the assay on NCI-H226 lung; greater than 100 µM in the assay with M14 melanoma. Further, the TGI in the assay with LOX IMVI melanoma is greater than 62.2 µM; in the assay on NCI-H522 lung, greater than 100 µM; in the assay with SK-OV-3 ovarian, 39 µM; in the assay on SF-268 CNS, greater than 55.5 µM; in the assay with DU-145 prostate it was greater than 100 µM; in the assay with OVCAR-8 ovarian, 34.7 µM. The TGI in the assay on CCRF-CEM leukemia was greater than 100 µM; in the assay on BT-549 breast, 23.4 µM; in the assay on MDA-MB-231 breast it was 33.7 µM; in the assay with RPMI-8226 leukemia, greater than 100 µM; with SNB-75 CNS it was greater than 28.8 µM; in the assay on MDA-MB-435, greater than 100 µM.
